Read-outs that look alike come from different tables or passages of the source.
Columns and labels:
Type in all cases: biochemical
[1] = target: 320 wild-type protein kinases (Homo sapiens, UniProt P49336); conditions: CDK8/CycC, singlicate
Excerpt: (§1) Table S4. Profiling of two compounds at two concentrations against 320 wild-type protein kinases; singlicate measurement; Residual activities (% of control).

[2] = target: 320 wild-type protein kinases (Homo sapiens, UniProt Q9HCP0); conditions: singlicate
Chain of 320 wild-type protein kinases (Homo sapiens, UniProt Q9HCP0) (Q9HCP0 whole entry): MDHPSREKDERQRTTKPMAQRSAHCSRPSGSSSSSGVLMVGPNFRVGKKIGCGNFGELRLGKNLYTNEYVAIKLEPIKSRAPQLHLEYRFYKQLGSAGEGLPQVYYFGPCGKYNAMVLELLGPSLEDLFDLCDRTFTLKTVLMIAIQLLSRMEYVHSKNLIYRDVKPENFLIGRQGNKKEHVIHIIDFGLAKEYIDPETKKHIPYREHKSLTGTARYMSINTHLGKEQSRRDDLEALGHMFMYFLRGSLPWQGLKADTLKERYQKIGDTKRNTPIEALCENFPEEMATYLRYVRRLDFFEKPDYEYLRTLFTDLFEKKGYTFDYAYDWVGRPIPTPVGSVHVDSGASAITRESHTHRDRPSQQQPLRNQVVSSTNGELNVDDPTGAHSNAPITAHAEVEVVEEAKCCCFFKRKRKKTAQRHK
Excerpt: as §1

[3] = target: T1, 320 wild-type protein kinases (Homo sapiens, UniProt Q8TD19); conditions: singlicate
T1 sequence (Q8TD19 1-979): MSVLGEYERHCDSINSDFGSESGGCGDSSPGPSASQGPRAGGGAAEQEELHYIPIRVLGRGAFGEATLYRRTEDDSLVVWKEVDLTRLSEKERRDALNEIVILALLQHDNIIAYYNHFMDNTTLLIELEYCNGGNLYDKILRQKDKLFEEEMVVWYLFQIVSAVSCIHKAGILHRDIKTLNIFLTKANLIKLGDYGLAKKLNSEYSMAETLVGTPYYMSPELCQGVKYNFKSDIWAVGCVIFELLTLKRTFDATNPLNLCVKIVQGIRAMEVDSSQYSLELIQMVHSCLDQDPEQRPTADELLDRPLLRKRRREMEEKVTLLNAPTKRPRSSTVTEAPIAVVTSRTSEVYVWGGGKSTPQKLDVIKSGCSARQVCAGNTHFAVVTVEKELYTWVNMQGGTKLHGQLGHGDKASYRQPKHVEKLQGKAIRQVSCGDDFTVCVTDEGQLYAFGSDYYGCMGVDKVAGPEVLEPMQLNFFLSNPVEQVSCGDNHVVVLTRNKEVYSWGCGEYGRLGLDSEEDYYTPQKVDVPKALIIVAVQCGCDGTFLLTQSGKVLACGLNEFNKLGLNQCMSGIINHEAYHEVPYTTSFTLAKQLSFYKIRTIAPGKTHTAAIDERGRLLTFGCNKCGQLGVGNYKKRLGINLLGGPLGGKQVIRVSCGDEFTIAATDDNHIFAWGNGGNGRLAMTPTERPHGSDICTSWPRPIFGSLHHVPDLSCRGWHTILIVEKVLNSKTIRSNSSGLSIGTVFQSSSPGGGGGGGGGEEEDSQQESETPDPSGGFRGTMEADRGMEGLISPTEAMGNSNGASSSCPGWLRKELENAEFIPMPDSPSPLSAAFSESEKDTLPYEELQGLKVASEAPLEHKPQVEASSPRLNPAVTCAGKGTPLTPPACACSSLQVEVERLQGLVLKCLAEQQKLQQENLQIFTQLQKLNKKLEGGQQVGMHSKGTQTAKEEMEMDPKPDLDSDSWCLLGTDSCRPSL
Excerpt: as §1

[4] = target: 320 wild-type protein kinases (Homo sapiens, UniProt P43405); conditions: kinase SYK aa1-635, singlicate
Excerpt: as §1

[5] = target: 320 wild-type protein kinases (Homo sapiens, UniProt O00506); conditions: kinase STK25, singlicate
Chain of 320 wild-type protein kinases (Homo sapiens, UniProt O00506) (O00506 whole entry): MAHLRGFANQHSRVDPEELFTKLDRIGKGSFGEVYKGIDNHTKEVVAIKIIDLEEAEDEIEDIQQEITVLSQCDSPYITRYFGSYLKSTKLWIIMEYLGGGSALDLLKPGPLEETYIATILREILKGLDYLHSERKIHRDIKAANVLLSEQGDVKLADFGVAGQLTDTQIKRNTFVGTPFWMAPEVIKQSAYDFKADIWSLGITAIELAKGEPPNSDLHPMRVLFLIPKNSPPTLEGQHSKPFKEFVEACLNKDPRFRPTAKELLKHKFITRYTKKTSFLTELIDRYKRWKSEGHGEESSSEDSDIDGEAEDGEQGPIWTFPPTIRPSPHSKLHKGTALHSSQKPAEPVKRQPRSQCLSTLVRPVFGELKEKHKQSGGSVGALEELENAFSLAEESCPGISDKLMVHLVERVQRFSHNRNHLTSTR
Excerpt: as §1

[6] = target: 320 wild-type protein kinases (Homo sapiens, UniProt P49761); conditions: singlicate
Chain of 320 wild-type protein kinases (Homo sapiens, UniProt P49761) (P49761 whole entry): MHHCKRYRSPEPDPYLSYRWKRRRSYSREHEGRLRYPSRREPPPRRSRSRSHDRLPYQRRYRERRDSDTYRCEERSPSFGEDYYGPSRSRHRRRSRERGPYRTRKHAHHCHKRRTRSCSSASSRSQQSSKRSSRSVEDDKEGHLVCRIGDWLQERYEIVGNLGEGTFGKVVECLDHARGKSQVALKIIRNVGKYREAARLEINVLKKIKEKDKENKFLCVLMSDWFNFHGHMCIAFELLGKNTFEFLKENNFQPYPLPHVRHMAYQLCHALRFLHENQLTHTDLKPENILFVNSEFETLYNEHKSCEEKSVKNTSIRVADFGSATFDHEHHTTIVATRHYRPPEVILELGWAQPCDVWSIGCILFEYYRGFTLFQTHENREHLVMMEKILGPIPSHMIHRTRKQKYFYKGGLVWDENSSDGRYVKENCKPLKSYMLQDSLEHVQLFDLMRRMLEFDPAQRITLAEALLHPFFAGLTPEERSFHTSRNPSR
Excerpt: as §1

[7] = target: T2, 320 wild-type protein kinases (Homo sapiens, UniProt P42680); conditions: kinase TEC, singlicate
T2 sequence (P42680 1-631): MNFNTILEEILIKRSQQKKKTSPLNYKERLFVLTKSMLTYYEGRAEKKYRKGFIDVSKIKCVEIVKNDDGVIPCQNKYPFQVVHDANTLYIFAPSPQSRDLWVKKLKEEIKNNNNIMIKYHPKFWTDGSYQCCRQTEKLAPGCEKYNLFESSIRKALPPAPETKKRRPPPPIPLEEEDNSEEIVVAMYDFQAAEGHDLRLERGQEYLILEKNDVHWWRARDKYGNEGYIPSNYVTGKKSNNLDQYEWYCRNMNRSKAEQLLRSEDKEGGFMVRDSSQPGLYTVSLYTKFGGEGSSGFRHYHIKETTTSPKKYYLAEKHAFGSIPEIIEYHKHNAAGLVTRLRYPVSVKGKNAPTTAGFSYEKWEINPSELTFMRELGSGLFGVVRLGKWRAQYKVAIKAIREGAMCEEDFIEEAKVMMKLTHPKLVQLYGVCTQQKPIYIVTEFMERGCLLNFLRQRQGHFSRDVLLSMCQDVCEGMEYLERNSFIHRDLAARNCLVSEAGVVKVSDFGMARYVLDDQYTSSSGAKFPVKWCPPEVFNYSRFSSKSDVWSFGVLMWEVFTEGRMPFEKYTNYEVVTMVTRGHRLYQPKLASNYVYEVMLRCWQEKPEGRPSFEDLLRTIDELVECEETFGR
Excerpt: as §1

[8] = target: 320 wild-type protein kinases (Homo sapiens, UniProt Q13464); conditions: kinase ROCK1, singlicate
Chain of 320 wild-type protein kinases (Homo sapiens, UniProt Q13464) (Q13464 whole entry): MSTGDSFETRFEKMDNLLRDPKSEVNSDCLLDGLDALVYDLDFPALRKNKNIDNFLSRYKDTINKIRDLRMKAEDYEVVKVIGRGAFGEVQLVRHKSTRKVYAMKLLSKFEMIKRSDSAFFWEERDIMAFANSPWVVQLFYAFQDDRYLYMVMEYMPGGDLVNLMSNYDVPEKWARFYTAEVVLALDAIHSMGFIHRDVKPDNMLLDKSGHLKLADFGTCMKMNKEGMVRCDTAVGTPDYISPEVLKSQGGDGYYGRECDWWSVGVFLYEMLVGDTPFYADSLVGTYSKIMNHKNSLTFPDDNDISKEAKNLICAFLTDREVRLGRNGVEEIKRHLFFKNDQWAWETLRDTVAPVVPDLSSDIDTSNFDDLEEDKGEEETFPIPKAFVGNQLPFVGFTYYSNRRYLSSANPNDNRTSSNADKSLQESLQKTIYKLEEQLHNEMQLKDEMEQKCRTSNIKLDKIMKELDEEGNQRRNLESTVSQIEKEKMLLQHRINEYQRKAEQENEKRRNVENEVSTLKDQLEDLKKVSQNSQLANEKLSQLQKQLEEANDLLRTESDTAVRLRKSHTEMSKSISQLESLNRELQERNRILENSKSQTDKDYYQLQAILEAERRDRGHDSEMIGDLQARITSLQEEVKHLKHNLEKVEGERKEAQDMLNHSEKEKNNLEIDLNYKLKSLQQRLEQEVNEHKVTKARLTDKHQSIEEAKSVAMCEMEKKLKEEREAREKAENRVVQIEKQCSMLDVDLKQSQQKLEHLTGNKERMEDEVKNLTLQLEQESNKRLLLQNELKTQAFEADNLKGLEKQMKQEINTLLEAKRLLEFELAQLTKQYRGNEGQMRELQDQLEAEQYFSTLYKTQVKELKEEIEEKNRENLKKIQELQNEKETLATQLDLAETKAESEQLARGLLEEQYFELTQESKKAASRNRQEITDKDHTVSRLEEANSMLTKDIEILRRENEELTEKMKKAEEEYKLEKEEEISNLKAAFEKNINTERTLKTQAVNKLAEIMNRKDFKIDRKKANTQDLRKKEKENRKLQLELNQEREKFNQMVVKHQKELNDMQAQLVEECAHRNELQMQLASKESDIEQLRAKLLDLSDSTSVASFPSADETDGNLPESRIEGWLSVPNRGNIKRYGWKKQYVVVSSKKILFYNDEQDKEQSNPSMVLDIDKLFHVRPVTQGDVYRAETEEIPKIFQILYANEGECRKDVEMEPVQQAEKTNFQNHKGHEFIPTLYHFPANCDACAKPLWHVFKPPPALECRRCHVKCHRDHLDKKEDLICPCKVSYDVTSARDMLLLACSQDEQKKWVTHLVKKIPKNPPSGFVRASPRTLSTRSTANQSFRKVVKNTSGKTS
Excerpt: as §1

[9] = target: 320 wild-type protein kinases (Homo sapiens, UniProt Q96SB4); conditions: kinase SRPK1, singlicate
Chain of 320 wild-type protein kinases (Homo sapiens, UniProt Q96SB4) (Q96SB4 whole entry): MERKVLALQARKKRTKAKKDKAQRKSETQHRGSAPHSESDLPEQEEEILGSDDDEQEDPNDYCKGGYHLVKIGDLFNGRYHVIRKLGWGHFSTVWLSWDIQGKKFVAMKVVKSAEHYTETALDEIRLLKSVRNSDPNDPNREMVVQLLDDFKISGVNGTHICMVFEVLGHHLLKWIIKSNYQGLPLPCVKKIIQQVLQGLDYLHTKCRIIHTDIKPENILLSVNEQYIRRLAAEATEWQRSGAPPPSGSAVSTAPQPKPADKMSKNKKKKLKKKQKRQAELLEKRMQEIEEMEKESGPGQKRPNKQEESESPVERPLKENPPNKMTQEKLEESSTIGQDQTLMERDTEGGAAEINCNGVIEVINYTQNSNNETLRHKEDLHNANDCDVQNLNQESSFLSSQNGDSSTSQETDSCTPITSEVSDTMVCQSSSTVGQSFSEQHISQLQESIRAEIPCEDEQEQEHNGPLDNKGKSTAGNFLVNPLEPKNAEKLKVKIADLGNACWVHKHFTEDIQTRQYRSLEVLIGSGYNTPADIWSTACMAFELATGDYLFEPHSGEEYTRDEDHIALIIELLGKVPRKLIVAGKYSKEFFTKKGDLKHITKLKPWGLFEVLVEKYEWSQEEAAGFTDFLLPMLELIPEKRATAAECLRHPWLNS
Excerpt: as §1

[10] = target: 320 wild-type protein kinases (Homo sapiens, UniProt O75116); conditions: kinase ROCK2, singlicate
Excerpt: as §1

[11] = target: 320 wild-type protein kinases (Homo sapiens, UniProt P35916); conditions: kinase VEGF-R3, singlicate
Excerpt: as §1

Chain of 320 wild-type protein kinases (Homo sapiens, UniProt P49336) (P49336 whole entry): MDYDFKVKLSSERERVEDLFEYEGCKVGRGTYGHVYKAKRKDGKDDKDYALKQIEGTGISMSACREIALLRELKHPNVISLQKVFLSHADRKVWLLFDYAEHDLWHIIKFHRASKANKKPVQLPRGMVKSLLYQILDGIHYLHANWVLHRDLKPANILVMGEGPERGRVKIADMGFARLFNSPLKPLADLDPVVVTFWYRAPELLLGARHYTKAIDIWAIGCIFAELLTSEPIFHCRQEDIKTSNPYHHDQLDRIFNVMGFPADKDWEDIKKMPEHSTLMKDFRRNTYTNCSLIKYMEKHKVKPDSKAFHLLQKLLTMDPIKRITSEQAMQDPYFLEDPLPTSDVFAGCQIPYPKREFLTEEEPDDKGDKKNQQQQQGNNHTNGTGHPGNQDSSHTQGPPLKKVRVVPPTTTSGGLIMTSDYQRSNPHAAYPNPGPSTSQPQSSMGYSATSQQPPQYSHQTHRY

| Compound | Residual activity ([1]; 1.0E-06 M) | Residual activity ([1]; 1.0E-07 M) | Residual activity ([2]; CK1-gamma1, 1.0E-06 M) | Residual activity ([2]; CK1-gamma1, 1.0E-07 M) | Residual activity ([3]; NEK9, 1.0E-06 M) | Residual activity ([3]; NEK9, 1.0E-07 M) | Residual activity, SYK aa1-635 ([4]; assay conc. 1.0E-06 M) | Residual activity, SYK aa1-635 ([4]; assay conc. 1.0E-07 M) | Residual activity, STK25 ([5]; assay conc. 1.0E-06 M) | Residual activity, STK25 ([5]; assay conc. 1.0E-07 M) | Residual activity ([6]; CLK3, 1.0E-06 M) | Residual activity ([6]; CLK3, 1.0E-07 M) | Residual activity, TEC ([7]; assay conc. 1.0E-06 M) | Residual activity, TEC ([7]; assay conc. 1.0E-07 M) | Residual activity, ROCK1 ([8]; assay conc. 1.0E-06 M) | Residual activity, ROCK1 ([8]; assay conc. 1.0E-07 M) | Residual activity, SRPK1 ([9]; assay conc. 1.0E-06 M) | Residual activity, SRPK1 ([9]; assay conc. 1.0E-07 M) | Residual activity, ROCK2 ([10]; assay conc. 1.0E-06 M) | Residual activity, ROCK2 ([10]; assay conc. 1.0E-07 M) | other results |
| --- | --- | --- | --- | --- | --- | --- | --- | --- | --- | --- | --- | --- | --- | --- | --- | --- | --- | --- | --- | --- | --- |
| C#Cc1cc(Nc2ncnc3cc(I)ccc23)ccc1Cl [Compound 41] | 92 % of control | 91 % of control | 123 % of control | 125 % of control | 115 % of control | 134 % of control | 94 % of control | 94 % of control | 100 % of control | 95 % of control | 128 % of control | 146 % of control | 90 % of control | 96 % of control | 91 % of control | 84 % of control | 89 % of control | 96 % of control | 88 % of control | 100 % of control | Residual activity, VEGF-R3 ([11]; assay conc. 1.0E-06 M): 119 % of control; Residual activity, VEGF-R3 ([11]; assay conc. 1.0E-07 M): 121 % of control |
| C#Cc1cc(Nc2ncnc3cc(OC)c(OC)cc23)ccc1Cl [Compound 45] | 95 % of control | 97 % of control | 100 % of control | 112 % of control | 91 % of control | 111 % of control | 104 % of control | 105 % of control | 104 % of control | 111 % of control | 133 % of control | 127 % of control | 92 % of control | 108 % of control | 83 % of control | 98 % of control | 97 % of control | 100 % of control | 84 % of control | 90 % of control | Residual activity, VEGF-R3 ([11]; assay conc. 1.0E-06 M): 112 % of control; Residual activity, VEGF-R3 ([11]; assay conc. 1.0E-07 M): 120 % of control |

Source: article PMC9329436, “Optimization of the 4-anilinoquin(az)oline scaffold as epidermal growth factor receptor (EGFR) inhibitors for chordoma utilizing a toxicology profiling assay platform” (Scientific Reports, 2022)
